Tested on: T-Rex 293 cells having increased expression of estrogen receptor alpha protein
Test: Cellular growth inhibition assay, T-Rex 293 cells, (+) doxycycline
Type: cell-based
Details: T-REx-293, 72 h, Table 7-A; T-Rex 293 cells with doxycycline (increased ERα expression); 72 hours; CellTiter-Glo; read-out: (+) Dox GI50
Procedure, shortened: (§1)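 Cells of an inducible ERα-expressing T-Rex 293 clone are seeded in charcoal-dextran FBS medium with or without 3 ng/mL doxycycline, then treated after 24 h with compound dilutions (0.5% DMSO) for 72 h. Growth inhibition is measured by CellTiter-Glo luminescence and expressed as GI50.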

`CC1=C(c2c(F)cc(F)cc2F)[C@H](c2ccc(N3CCN(CC4CCN(c5ccc(C6=N[C@H](C)c7nnc(C)n7-c7sc(C)c(C)c76)cc5)CC4)CC3)cc2)Oc2ccc(O)cc21` [V-24] and `CC1=C(c2c(F)cc(F)cc2F)[C@@H](c2ccc(N3CCN(CC4CCN(c5ccc(C6=N[C@H](C)c7nnc(C)n7-c7sc(C)c(C)c76)cc5)CC4)CC3)cc2)Oc2ccc(O)cc21` [V-25] cannot be ordered by GI50: greater than 2500 nM for the first, greater than 2500 nM for the second.

`CC1=C(c2c(F)cc(F)cc2F)[C@@H](c2ccc(OCC(=O)N3CCC4(CC3)CCN(c3ccc(C5=N[C@@H](C)c6nnc(C)n6-c6sc(C)c(C)c65)cc3)C4)cc2)Oc2ccc(O)cc21` [V-26] and `CC1=C(c2c(F)cc(F)cc2F)[C@H](c2ccc(OCC(=O)N3CCC4(CC3)CCN(c3ccc(C5=N[C@@H](C)c6nnc(C)n6-c6sc(C)c(C)c65)cc3)C4)cc2)Oc2ccc(O)cc21` [V-27] cannot be ordered by GI50: less than 50 nM for the first, less than 50 nM for the second.

`CC1=C(c2c(F)cc(F)cc2F)C(c2ccc(N3CCN(CC4(O)CCN(c5ccc(C6=N[C@@H](C)c7nnc(C)n7-c7sc(C)c(C)c76)cc5)CC4)CC3)cc2)Oc2ccc(O)cc21` (stereo partly drawn) [V-28] and `CC1=C(c2c(F)cc(F)cc2F)[C@H](c2ccc(C3CCN(CC4(O)CCN(c5ccc(C6=N[C@@H](C)c7nnc(C)n7-c7sc(C)c(C)c76)cc5)CC4)CC3)cc2)Oc2ccc(O)cc21` [V-31] cannot be ordered by GI50: less than 50 nM for the first, less than 50 nM for the second.

`CC1=C(c2c(F)cc(F)cc2F)[C@@H](c2ccc(OCC(=O)N3CCCC4(CCN(c5ccc(C6=N[C@@H](C)c7nnc(C)n7-c7sc(C)c(C)c76)cc5)C4)C3)cc2)Oc2ccc(O)cc21` (stereo partly drawn) [V-29] and `CC1=C(c2c(F)cc(F)cc2F)[C@H](c2ccc(OCC(=O)N3CCCC4(CCN(c5ccc(C6=N[C@@H](C)c7nnc(C)n7-c7sc(C)c(C)c76)cc5)C4)C3)cc2)Oc2ccc(O)cc21` (stereo partly drawn) [V-30] fall in the same range of GI50: 50 to 500 nM for the first, 50 to 500 nM for the second.

Tested on: MCF7 cells (ATCC #HTB-22)
Test: Cellular growth inhibition assay, MCF7 cells purchased from ATCC
Type: cell-based
Details: Homo sapiens, MCF7, 144 h, Table 8-A; MCF7 cells purchased from ATCC; six days; CellTiter-Glo; read-out: GI50
Procedure, shortened: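 GI50 values come from a four-parameter fit of CellTiter-Glo 2.0 luminescence after six days of compound exposure at 37° C. Seeding density depended on the source: 225 cells/well for ECACC MCF7, 1,500 for ATCC. Medium was RPMI 1640 with 10% FBS and 0.2 U/ml insulin.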

`CC1=C(c2c(F)cc(F)cc2F)[C@H](c2ccc(N3CCN(CC4CCN(c5ccc(C6=N[C@H](C)c7nnc(C)n7-c7sc(C)c(C)c76)cc5)CC4)CC3)cc2)Oc2ccc(O)cc21` [V-24] and `CC1=C(c2c(F)cc(F)cc2F)[C@@H](c2ccc(N3CCN(CC4CCN(c5ccc(C6=N[C@H](C)c7nnc(C)n7-c7sc(C)c(C)c76)cc5)CC4)CC3)cc2)Oc2ccc(O)cc21` [V-25] cannot be ordered by GI50: greater than 2500 nM for the first, greater than 2500 nM for the second.

`CC1=C(c2c(F)cc(F)cc2F)[C@@H](c2ccc(OCC(=O)N3CCC4(CC3)CCN(c3ccc(C5=N[C@@H](C)c6nnc(C)n6-c6sc(C)c(C)c65)cc3)C4)cc2)Oc2ccc(O)cc21` [V-26] and `CC1=C(c2c(F)cc(F)cc2F)[C@H](c2ccc(OCC(=O)N3CCC4(CC3)CCN(c3ccc(C5=N[C@@H](C)c6nnc(C)n6-c6sc(C)c(C)c65)cc3)C4)cc2)Oc2ccc(O)cc21` [V-27] fall in the same range of GI50: 50 to 500 nM for the first, 50 to 500 nM for the second.

First: CC1=C(c2c(F)cc(F)cc2F)C(c2ccc(N3CCN(CC4(O)CCN(c5ccc(C6=N[C@@H](C)c7nnc(C)n7-c7sc(C)c(C)c76)cc5)CC4)CC3)cc2)Oc2ccc(O)cc21 (stereo partly drawn) [V-28]
Second: CC1=C(c2c(F)cc(F)cc2F)[C@H](c2ccc(C3CCN(CC4(O)CCN(c5ccc(C6=N[C@@H](C)c7nnc(C)n7-c7sc(C)c(C)c76)cc5)CC4)CC3)cc2)Oc2ccc(O)cc21 [V-31]
The GI50 of the first is lower: less than 50 nM for the first, 50 to 500 nM for the second.

`CC1=C(c2c(F)cc(F)cc2F)[C@@H](c2ccc(OCC(=O)N3CCCC4(CCN(c5ccc(C6=N[C@@H](C)c7nnc(C)n7-c7sc(C)c(C)c76)cc5)C4)C3)cc2)Oc2ccc(O)cc21` (stereo partly drawn) [V-29] and `CC1=C(c2c(F)cc(F)cc2F)[C@H](c2ccc(OCC(=O)N3CCCC4(CCN(c5ccc(C6=N[C@@H](C)c7nnc(C)n7-c7sc(C)c(C)c76)cc5)C4)C3)cc2)Oc2ccc(O)cc21` (stereo partly drawn) [V-30] fall in the same range of GI50: 50 to 500 nM for the first, 50 to 500 nM for the second.

Tested on: T-Rex 293 cells lacking increased expression of estrogen receptor alpha protein
Test: Cellular growth inhibition assay, T-Rex 293 cells, (−) doxycycline
Type: cell-based
Details: T-REx-293, 72 h, Table 7-A; T-Rex 293 cells without doxycycline (lacking increased ERα expression); 72 hours; CellTiter-Glo; read-out: (−) Dox GI50
Procedure, shortened: as §1

`CC1=C(c2c(F)cc(F)cc2F)[C@H](c2ccc(N3CCN(CC4CCN(c5ccc(C6=N[C@H](C)c7nnc(C)n7-c7sc(C)c(C)c76)cc5)CC4)CC3)cc2)Oc2ccc(O)cc21` [V-24] and `CC1=C(c2c(F)cc(F)cc2F)[C@@H](c2ccc(N3CCN(CC4CCN(c5ccc(C6=N[C@H](C)c7nnc(C)n7-c7sc(C)c(C)c76)cc5)CC4)CC3)cc2)Oc2ccc(O)cc21` [V-25] cannot be ordered by GI50: greater than 2500 nM for the first, greater than 2500 nM for the second.

Compared with `CC1=C(c2c(F)cc(F)cc2F)[C@@H](c2ccc(OCC(=O)N3CCC4(CC3)CCN(c3ccc(C5=N[C@@H](C)c6nnc(C)n6-c6sc(C)c(C)c65)cc3)C4)cc2)Oc2ccc(O)cc21` [V-26], `CC1=C(c2c(F)cc(F)cc2F)[C@H](c2ccc(OCC(=O)N3CCC4(CC3)CCN(c3ccc(C5=N[C@@H](C)c6nnc(C)n6-c6sc(C)c(C)c65)cc3)C4)cc2)Oc2ccc(O)cc21` [V-27] is higher in GI50: 50 to 500 nM for the first, 500 to 2500 nM for the second.

`CC1=C(c2c(F)cc(F)cc2F)C(c2ccc(N3CCN(CC4(O)CCN(c5ccc(C6=N[C@@H](C)c7nnc(C)n7-c7sc(C)c(C)c76)cc5)CC4)CC3)cc2)Oc2ccc(O)cc21` (stereo partly drawn) [V-28] and `CC1=C(c2c(F)cc(F)cc2F)[C@H](c2ccc(C3CCN(CC4(O)CCN(c5ccc(C6=N[C@@H](C)c7nnc(C)n7-c7sc(C)c(C)c76)cc5)CC4)CC3)cc2)Oc2ccc(O)cc21` [V-31] fall in the same range of GI50: 50 to 500 nM for the first, 50 to 500 nM for the second.

`CC1=C(c2c(F)cc(F)cc2F)[C@@H](c2ccc(OCC(=O)N3CCCC4(CCN(c5ccc(C6=N[C@@H](C)c7nnc(C)n7-c7sc(C)c(C)c76)cc5)C4)C3)cc2)Oc2ccc(O)cc21` (stereo partly drawn) [V-29] and `CC1=C(c2c(F)cc(F)cc2F)[C@H](c2ccc(OCC(=O)N3CCCC4(CCN(c5ccc(C6=N[C@@H](C)c7nnc(C)n7-c7sc(C)c(C)c76)cc5)C4)C3)cc2)Oc2ccc(O)cc21` (stereo partly drawn) [V-30] fall in the same range of GI50: 50 to 500 nM for the first, 50 to 500 nM for the second.

— patent publication US12558428B2, “Heterobifunctional compounds and their use in treating disease” (Halda Therapeutics OpCo, Inc., priority 2024, dated 2026)
